Where “and” joins values, the source holds several entries; their conditions need not be identical. Equal values may be shown once. Inconclusive results and toxic doses are left out.
Tested on: P388 leukemia ip, CD2F1 mice, survival T/C
Assay: NCI In Vivo Anticancer Drug Screen. Data for tumor model P388 Leukemia (intraperitoneal) in CD2F1 (CDF1) mice
Details: endpoint: median survival time, higher = longer survival
Summary of the method: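 Mice carrying the transplanted tumor received test compound or vehicle. Survival was recorded in each group, and the value is the treated-group measurement divided by that of the vehicle-treated control group.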

In the case of `NC(=O)c1cn(C2OC(CO)C(O)C2O)c2ncnc(N)c12` (stereo not drawn), the T/C (dose: 0.06 mg/kg/injection, schedule: Q03HX024 (ip), vehicle: saline) is reported as 105 % of control, the T/C (dose: 0.13 mg/kg/injection, schedule: Q01DX009 (ip), vehicle: saline) is reported as 100 % of control and the T/C (dose: 0.13 mg/kg/injection, schedule: Q03HX008 (ip), vehicle: saline) is reported as 111 % of control. For the same compound, the T/C (dose: 0.13 mg/kg/injection, schedule: Q03HX016 (ip), vehicle: saline) was 122 % of control, the T/C (dose: 0.13 mg/kg/injection, schedule: Q03HX024 (ip), vehicle: saline) was 111 % of control and the T/C (dose: 0.25 mg/kg/injection, schedule: Q01DX009 (ip), vehicle: saline) was 111 % of control. The T/C (dose: 0.25 mg/kg/injection, schedule: Q03HX008 (ip), vehicle: saline) was 111 % of control, the T/C (dose: 0.25 mg/kg/injection, schedule: Q03HX016 (ip), vehicle: saline) was 111 % of control and the T/C (dose: 0.25 mg/kg/injection, schedule: Q03HX024 (ip), vehicle: saline) was 111 % of control. For the same compound, the T/C (dose: 0.5 mg/kg/injection, schedule: Q01DX005 (ip), vehicle: saline with Tween-80) was 151 % of control, the T/C (dose: 0.5 mg/kg/injection, schedule: Q01DX009 (ip), vehicle: saline) was 105 % of control and the T/C (dose: 0.5 mg/kg/injection, schedule: Q01DX009 (ip), vehicle: suspension in saline) was 154 % of control. For the same compound, the T/C (dose: 0.5 mg/kg/injection, schedule: Q03HX008 (ip), vehicle: saline) was 111 % of control, the T/C (dose: 0.5 mg/kg/injection, schedule: Q03HX016 (ip), vehicle: saline) was 116 % of control and the T/C (dose: 0.5 mg/kg/injection, schedule: Q03HX024 (ip), vehicle: saline) was 111 % of control. For the same compound, the T/C (dose: 0.5 mg/kg/injection, schedule: Q04DX003 (ip), vehicle: saline) was 105 % of control, the T/C (dose: 1.0 mg/kg/injection, schedule: Q01DX001 (ip), vehicle: saline) was 111 % of control and the T/C (dose: 1.0 mg/kg/injection, schedule: Q01DX005 (ip), vehicle: saline with Tween-80) was 161 % of control. For the same compound, the T/C (dose: 1.0 mg/kg/injection, schedule: Q01DX009 (ip), vehicle: saline) was 111 % of control, the T/C (dose: 1.0 mg/kg/injection, schedule: Q01DX009 (ip), vehicle: suspension in saline) was 154 % of control and the T/C (dose: 1.0 mg/kg/injection, schedule: Q03HX008 (ip), vehicle: saline) was 94 % of control. The T/C (dose: 1.0 mg/kg/injection, schedule: Q03HX016 (ip), vehicle: saline) was 122 % of control, the T/C (dose: 1.0 mg/kg/injection, schedule: Q04DX003 (ip), vehicle: saline) was 116 % of control and the T/C (dose: 1.0 mg/kg/injection, schedule: Q08DX002 (ip), vehicle: saline) was 111 % of control. For the same compound, the T/C (dose: 2.0 mg/kg/injection, schedule: Q01DX001 (ip), vehicle: saline) was 111 % of control, the T/C (dose: 2.0 mg/kg/injection, schedule: Q01DX005 (ip), vehicle: saline with Tween-80) was 169 % of control and the T/C (dose: 2.0 mg/kg/injection, schedule: Q01DX009 (ip), vehicle: saline) was 100 % of control. For the same compound, the T/C (dose: 2.0 mg/kg/injection, schedule: Q01DX009 (ip), vehicle: suspension in saline) was 94 % of control, the T/C (dose: 2.0 mg/kg/injection, schedule: Q04DX003 (ip), vehicle: saline) was 111 % of control and the T/C (dose: 2.0 mg/kg/injection, schedule: Q08DX002 (ip), vehicle: saline) was 111 % of control. For the same compound, the T/C (dose: 4.0 mg/kg/injection, schedule: Q01DX001 (ip), vehicle: saline) was 122 % of control, the T/C (dose: 4.0 mg/kg/injection, schedule: Q04DX003 (ip), vehicle: saline) was 122 % of control and 118 % of control and the T/C (dose: 4.0 mg/kg/injection, schedule: Q08DX002 (ip), vehicle: saline) was 116 % of control. For the same compound, the T/C (dose: 8.0 mg/kg/injection, schedule: Q01DX001 (ip), vehicle: saline) was 111 % of control and the T/C (dose: 8.0 mg/kg/injection, schedule: Q08DX002 (ip), vehicle: saline) was 116 % of control.

`CC1(C)COSOC1` was tested, and the T/C (dose: 100.0 mg/kg/injection, schedule: Q01DX001 (ip), vehicle: Klucel (hydroxypropylcellulose) (HPC)) was 98 % of control, the T/C (dose: 200.0 mg/kg/injection, schedule: Q01DX001 (ip), vehicle: Klucel (hydroxypropylcellulose) (HPC)) was 104 % of control and the T/C (dose: 400.0 mg/kg/injection, schedule: Q01DX001 (ip), vehicle: Klucel (hydroxypropylcellulose) (HPC)) was 104 % of control.
